{"source": "ChEMBL document CHEMBL1158876", "about": "“New acylated sulfoglycolipids and digalactolipids and related known glycolipids from cyanobacteria with a potential to inhibit the reverse transcriptase of HIV-1” (J Nat Prod, 1997)"}
{"target": "Gag-Pol polyprotein (Human immunodeficiency virus type 1 group M subtype B (isolate BH10)(HIV-1)) (UniProt P03366)", "test": "Inhibition of RNA dependent DNA polymerase activity of HIV1 BH10 recombinant reverse transcriptase p66/p51 expressed in Escherichia coli at 10 uM", "conditions": "Human immunodeficiency virus 1", "units": {"inhibition": "%"}}
{"smiles": "CCCCCCCC/C=C\\CCCCCCCC(=O)OC[C@H](CO[C@H]1O[C@H](CS(=O)(=O)O)[C@@H](O)[C@H](O)[C@H]1O)OC(=O)CCCCCCCCCCCCCCC", "inhibition": 100}
{"smiles": "CCCCC/C=C\\C/C=C\\CCCCCCCC(=O)OC[C@H](CO[C@H]1O[C@H](CS(=O)(=O)O)[C@@H](O)[C@H](OC(=O)CCCCCCCCCCCCCCC)[C@H]1OC(=O)CCCCCCCCCCCCCCC)OC(=O)CCCCCCCCCCCCCCC", "inhibition": 100}
{"smiles": "CCCCC/C=C\\C/C=C\\CCCCCCCC(=O)OC[C@H](CO[C@@H]1O[C@H](CO[C@H]2O[C@H](CO)[C@H](O)[C@H](OC(=O)CCCCCCCCCCCCCCC)[C@H]2O)[C@H](O)[C@H](O)[C@H]1O)OC(=O)CCCCCCCCCCCCCCC", "inhibition": 42}
{"smiles": "CCCCC/C=C\\C/C=C\\CCCCCCCC(=O)OC[C@H](CO[C@H]1O[C@H](CS(=O)(=O)O)[C@@H](O)[C@H](O)[C@H]1O)OC(=O)CCCCCCCCCCCCCCC", "inhibition": 100}
{"smiles": "CCCCCCCC/C=C\\CCCCCCCC(=O)OC[C@H](CO[C@@H]1O[C@H](CO)[C@H](O)[C@H](O)C1O)OC(=O)CCCCCCCCCCCCCCC", "note": "(single isomer, unassigned)", "inhibition": 33}
{"smiles": "CCCCC/C=C\\C/C=C\\CCCCCCCC(=O)OC[C@H](CO[C@@H]1O[C@H](CO)[C@H](O)[C@H](O)C1O)OC(=O)CCCCCCCCCCCCCCC", "note": "(single isomer, unassigned)", "inhibition": 65}
{"smiles": "CCCCCCCCCCCCCCCC(=O)OC[C@H](CO[C@H]1O[C@H](CS(=O)(=O)O)[C@@H](O)[C@H](O)[C@H]1O)OC(=O)CCCCCCCCCCCCCCC", "inhibition": 100}
{"smiles": "CCCCCCCCCCCCCCCC(=O)OC[C@H](CO[C@@H]1O[C@H](CO)[C@H](O)[C@H](O)C1O)OC(=O)CCCCCCCCCCCCCCC", "note": "(single isomer, unassigned)", "inhibition": 8}
